In article PMC9812923 (2022):

Assays:
[1] = tested on: GA3 (DNA, G4) AGGGAAAAGGGGAGGGAAAAGGGGA; assay: UV-Vis melting, 295 nm; details: 100 mM K+; 10 mM lithium cacodylate pH 7.2; 2 equivalents NMM, ~4 μM DNA
[2] = tested on: GA2 (DNA, G4) GAGGGAGGGAAAAGGGGAGGGA; assay: UV-Vis melting, 295 nm; details: 100 mM K+; 10 mM lithium cacodylate pH 7.2; 2 equivalents NMM, ~4 μM DNA
[3] = tested on: GA1 (DNA, G4) GAGGGAGGGAGGGAAAAGGGGA; assay: UV-Vis melting, 295 nm; details: 100 mM K+; 10 mM lithium cacodylate pH 7.2; 2 equivalents NMM, ~4 μM DNA
[4] = tested on: GA2 (DNA, G4) GAGGGAGGGAAAAGGGGAGGGA; assay: UV-Vis titration, SVD; details: 5 mM K+, 95 mM Li+; 10 mM lithium cacodylate pH 7.2, 20 °C; 1:1 model

- ΔTm [1]: 7.0 ± 1.7 °C
- ΔTm [2]: 13.1 ± 0.8 °C
- ΔTm [3]: 14.6 ± 1.1 °C
- Ka [4]: 1.4 ± 0.1 µM⁻¹
Structure (SMILES): CCc1c(C)c2cc3nc(cc4nc(cc5c(CC)c(C)c(cc1[nH]2)n5C)C(C)=C4CCC(=O)O)C(CCC(=O)O)=C3C
